According to patent US8501770B2 (ArQule, Inc., priority 2009, dated 2013):
pIC50: −log10 of the molar value. Counter-ions that a name gives are not always drawn.

Target: Full-length inactive AKT1 (Homo sapiens, UniProt P31749)
Experiment: Inactive Akt Alpha Screen Assay
Type: biochemical
Details: values not marked with "*": AlphaScreen assay; read-out: Akt1 IC50, (AlphaScreen)
Method: AKT1 activity was assayed using the GSK3-derived biotinylated peptide substrate, crosstide (biotin-[…]), and AlphaScreen™ (Amplified Luminescent Proximity Homogeneous Assay) technology. AKT1 activation was achieved by the addition of the activating kinases PDK1 and MAPKAPK2, lipid vesicles, and ATP. The extent of peptide phosphorylation was determined using a phospho-AKT substrate antibody and acceptor beads conjugated to Protein A and donor beads conjugated to streptavidin that bind to the biotin on the peptide. Excitation of the donor beads converted ambient oxygen to excited singlet oxygen which, when in close proximity to acceptor beads, reacted with acceptor beads resulting in signal amplification.
Assay plates were incubated for 90 minutes at room temperature in the dark, and the plates were read on a Perkin Elmer Envision Multilabel plate reader (excitation wavelength: […], emission wavelength: 570 nm).

Full-length inactive AKT1, sequence (P31749 whole entry): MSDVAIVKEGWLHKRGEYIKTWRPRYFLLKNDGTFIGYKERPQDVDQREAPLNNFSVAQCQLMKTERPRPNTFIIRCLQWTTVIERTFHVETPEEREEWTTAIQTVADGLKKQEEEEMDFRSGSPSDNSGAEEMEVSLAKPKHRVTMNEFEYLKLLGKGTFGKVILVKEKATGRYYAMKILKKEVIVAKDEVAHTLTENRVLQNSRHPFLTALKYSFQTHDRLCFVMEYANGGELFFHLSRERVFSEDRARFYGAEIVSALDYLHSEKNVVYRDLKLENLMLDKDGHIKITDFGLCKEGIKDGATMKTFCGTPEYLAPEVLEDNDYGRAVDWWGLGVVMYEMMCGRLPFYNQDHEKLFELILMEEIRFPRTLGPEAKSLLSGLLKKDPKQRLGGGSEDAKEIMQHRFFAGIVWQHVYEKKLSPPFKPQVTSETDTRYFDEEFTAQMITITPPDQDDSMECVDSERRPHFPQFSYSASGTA

**Q.** With `COc1ccc2nc(-c3cccnc3N)n(-c3ccc(C(C)(C)C)cc3)c2n1` [Example 8] as the compound, how does the pIC50 read?
**A.** 4.69

**Q.** `CC(C)(C)OC(=O)NCc1ccc(-n2c(-c3cccnc3N)nc3cccnc32)cc1` [Example 9] was tested. Which pIC50 did it give?
**A.** 5.61

**Q.** How did the pIC50 turn out when `Nc1ncccc1-c1nc2cccnc2n1-c1ccc(CNC(=O)c2cccnc2)cc1` [Example 12] was run?
**A.** 6.68

**Q.** `CNS(=O)(=O)Cc1ccc(-n2c(-c3cccnc3N)nc3cccnc32)cc1` [Example 13] was tested. Which pIC50 did it give?
**A.** 6.29

**Q.** `Nc1ncccc1-c1nc2cccnc2n1-c1ccc(CN2CCOCC2)cc1` [Example 15] was tested. Which pIC50 did it give?
**A.** 5.75

**Q.** `Nc1ncccc1-c1nc2cccnc2n1-c1ccc(C2CCCCC2)cc1` [Example 17] was tested. Which pIC50 did it give?
**A.** 5.41

**Q.** With `Nc1ncccc1-c1nc2cccnc2n1-c1ccc(CNC(=O)c2ccccn2)cc1` [Example 19] as the compound, how does the pIC50 read?
**A.** 6.46

**Q.** How did the pIC50 turn out when `Nc1ncccc1-c1nc2cccnc2n1-c1ccc(CNC(=O)c2nccc3ccccc23)cc1` [Example 20] was run?
**A.** 6.45

**Q.** With `Nc1ncccc1-c1nc2cccnc2n1-c1ccc(CNCc2ccccc2)cc1` [Example 37] as the compound, how does the pIC50 read?
**A.** 6.69

**Q.** How did the pIC50 turn out when `Nc1ncccc1-c1nc2cccnc2n1-c1ccc(S(=O)(=O)N2CCCCC2)cc1` [Example 38] was run?
**A.** 5.37

**Q.** With `Nc1ncccc1-c1nc2cccnc2n1-c1ccc(CNC(=O)c2ccc(Br)cc2)cc1` [Example 40] as the compound, how does the pIC50 read?
**A.** 7.05

**Q.** How did the pIC50 turn out when `Nc1ncccc1-c1nc2cccnc2n1-c1ccc(CNC(=O)CC(c2ccccc2)c2ccccc2)cc1` [Example 42] was run?
**A.** 5.70

**Q.** With `CC(=O)Nc1ccccc1C(=O)NCc1ccc(-n2c(-c3cccnc3N)nc3cccnc32)cc1` [Example 43] as the compound, how does the pIC50 read?
**A.** 5.85

**Q.** With `Nc1ncccc1-c1nc2cccnc2n1-c1ccc(CNC(=O)c2ccc(OC(F)(F)F)cc2)cc1` [Example 47] as the compound, how does the pIC50 read?
**A.** 6.42

**Q.** With `Nc1ncccc1-c1nc2cccnc2n1-c1ccc(CNC(=O)c2cccs2)cc1` [Example 48] as the compound, how does the pIC50 read?
**A.** 6.71

**Q.** `Nc1ncccc1-c1nc2cccnc2n1-c1ccc(CNC(=O)c2cccc(F)c2)cc1` [Example 49] was tested. Which pIC50 did it give?
**A.** 7.08

**Q.** `COc1ccccc1C(=O)NCc1ccc(-n2c(-c3cccnc3N)nc3cccnc32)cc1` [Example 50] was tested. Which pIC50 did it give?
**A.** 5.58

**Q.** How did the pIC50 turn out when `CC(C)(C)C(=O)NCc1ccc(-n2c(-c3cccnc3N)nc3cccnc32)cc1` [Example 52, N-{4-[2-(2-aminopyridin-3-yl)-3H-imidazo[4,5-b]pyridin-3-yl]benzyl}-2,2-dimethylpropanamide] was run?
**A.** 5.56

**Q.** How did the pIC50 turn out when `Cc1cccc(C(=O)NCc2ccc(-n3c(-c4cccnc4N)nc4cccnc43)cc2)c1` [Example 53] was run?
**A.** 6.91

**Q.** How did the pIC50 turn out when `COc1ccc(C(=O)NCc2ccc(-n3c(-c4cccnc4N)nc4cccnc43)cc2)cc1` [Example 54] was run?
**A.** 6.15

**Q.** `CNc1ccccc1C(=O)NCc1ccc(-n2c(-c3cccnc3N)nc3cccnc32)cc1` [Example 57] was tested. Which pIC50 did it give?
**A.** 5.82

**Q.** `Nc1ncccc1-c1nc2cccnc2n1-c1ccc(CNC(=O)c2ccc(C(F)(F)F)cc2)cc1` [Example 63] was tested. Which pIC50 did it give?
**A.** 6.10

**Q.** `Nc1ncccc1-c1nc2cccnc2n1-c1ccc(CNC(=O)c2ccc3c(c2)CCO3)cc1` [Example 64] was tested. Which pIC50 did it give?
**A.** 5.95

**Q.** With `Cc1ccccc1C(=O)NCc1ccc(-n2c(-c3cccnc3N)nc3cccnc32)cc1` [Example 70] as the compound, how does the pIC50 read?
**A.** 6.72

**Q.** `CC(=O)Nc1ccc(C(=O)NCc2ccc(-n3c(-c4cccnc4N)nc4cccnc43)cc2)cc1` [Example 71] was tested. Which pIC50 did it give?
**A.** 6.22

**Q.** `Nc1ncccc1-c1nc2cccnc2n1-c1ccc(CNC(=O)CC2CCCC2)cc1` [Example 73] was tested. Which pIC50 did it give?
**A.** 5.58

**Q.** How did the pIC50 turn out when `Nc1ncccc1-c1nc2cccnc2n1-c1ccc(CNC(=O)C2Cc3ccccc3C2)cc1` [Example 75] was run?
**A.** 6.75

**Q.** `COc1cccc(C(=O)NCc2ccc(-n3c(-c4cccnc4N)nc4cccnc43)cc2)c1` [Example 77] was tested. Which pIC50 did it give?
**A.** 6.38

**Q.** `Nc1ncccc1-c1nc2cccnc2n1-c1ccc(CNC(=O)c2ccccc2-n2cccc2)cc1` [Example 78] was tested. Which pIC50 did it give?
**A.** 6.51

**Q.** `CC1=NN(c2ccc(C(=O)NCc3ccc(-n4c(-c5cccnc5N)nc5cccnc54)cc3)cc2)C(=O)C1` [Example 79] was tested. Which pIC50 did it give?
**A.** 5.95

**Q.** `Nc1ncccc1-c1nc2cccnc2n1-c1ccc(CNC(=O)c2ccc(F)cc2)cc1` [Example 81] was tested. Which pIC50 did it give?
**A.** 5.86

**Q.** How did the pIC50 turn out when `Nc1ncccc1-c1nc2cccnc2n1-c1ccc(CNC(=O)Nc2ccccc2Cl)cc1` [Example 90] was run?
**A.** 6.40

**Q.** `Nc1ncccc1-c1nc2cccnc2n1-c1ccc(CNS(=O)(=O)c2cccnc2)cc1` [Example 94] was tested. Which pIC50 did it give?
**A.** 6.85

**Q.** `Nc1ncccc1-c1nc2cccnc2n1-c1ccc(CNS(=O)(=O)c2ccsc2)cc1` [Example 100] was tested. Which pIC50 did it give?
**A.** 6.80

**Q.** With `Nc1ccc(-n2c(-c3cccnc3N)nc3cccnc32)cc1` [Example 106, hydrochloride] as the compound, how does the pIC50 read?
**A.** 5.60

**Q.** How did the pIC50 turn out when `Nc1ncccc1-c1nc2cccnc2n1-c1ccc(CC(=O)N2CCC(n3c(=O)[nH]c4ccccc43)CC2)cc1` [Example 107] was run?
**A.** 5.84

**Q.** How did the pIC50 turn out when `Cn1ccc(S(=O)(=O)NCc2ccc(-n3c(-c4cccnc4N)nc4cccnc43)cc2)n1` [Example 109, hydrochloride] was run?
**A.** 6.07

**Q.** How did the pIC50 turn out when `CCOC(=O)Cc1ccc(-n2c(-c3cccnc3N)nc3cccnc32)cc1` [Example 113] was run?
**A.** 6.21

**Q.** `Cn1c(NC(=O)Cc2ccc(-n3c(-c4cccnc4N)nc4cccnc43)cc2)nc2ccccc21` [Example 114] was tested. Which pIC50 did it give?
**A.** 6.24

**Q.** How did the pIC50 turn out when `COc1ccc(NC(=O)Cc2ccc(-n3c(-c4cccnc4N)nc4cccnc43)cc2)c(OC)c1` [Example 116] was run?
**A.** 6.23

**Q.** `COc1cccc(NC(=O)Cc2ccc(-n3c(-c4cccnc4N)nc4cccnc43)cc2)c1` [Example 119, hydrochloride] was tested. Which pIC50 did it give?
**A.** 6.63

**Q.** With `Cc1ccc2nc(NC(=O)Cc3ccc(-n4c(-c5cccnc5N)nc5cccnc54)cc3)sc2c1` [Example 121, hydrochloride] as the compound, how does the pIC50 read?
**A.** 6.80

**Q.** With `Cc1ccc2cc(NC(=O)Cc3ccc(-n4c(-c5cccnc5N)nc5cccnc54)cc3)ccc2n1` [Example 123, hydrochloride] as the compound, how does the pIC50 read?
**A.** 6.89

**Q.** `Cc1ccc(NC(=O)Cc2ccc(-n3c(-c4cccnc4N)nc4cccnc43)cc2)cc1` [Example 127] was tested. Which pIC50 did it give?
**A.** 6.97

**Q.** How did the pIC50 turn out when `COc1ccc(NC(=O)Cc2ccc(-n3c(-c4cccnc4N)nc4cccnc43)cc2)cc1F` [Example 128] was run?
**A.** 6.67

**Q.** `Nc1ncccc1-c1nc2cc(F)cnc2n1-c1ccc(CNC(=O)c2ccccc2)cc1` [Example 133, N-(4-(2-(2-aminopyridin-3-yl)-6-fluoro-3H-imidazo[4,5-b]pyridin-3-yl)benzyl)benzamide] was tested. Which pIC50 did it give?
**A.** 6.97

**Q.** How did the pIC50 turn out when `Nc1ccccc1-c1cnc2c(c1)nc(-c1cccnc1N)n2-c1ccc(CNC(=O)c2ccccc2)cc1` [Example 134, N-{4-[6-(2-aminophenyl)-2-(2-aminopyridin-3-yl)-3H-imidazo[4,5-b]pyridin-3-yl]benzyl}benzamide] was run?
**A.** 5.80

**Q.** How did the pIC50 turn out when `CCOc1cccc(-c2cnc3c(c2)nc(-c2cccnc2N)n3-c2ccc(CNC(=O)c3ccccc3)cc2)c1` [Example 135, N-{4-[2-(2-aminopyridin-3-yl)-6-(3-ethoxyphenyl)-3H-imidazo[4,5-b]pyridin-3-yl]benzyl}benzamide] was run?
**A.** 5.74

**Q.** How did the pIC50 turn out when `Nc1ncccc1-c1nc2cc(-c3ccsc3)cnc2n1-c1ccc(CNC(=O)c2ccccc2)cc1` [Example 137, N-{4-[2-(2-aminopyridin-3-yl)-6-thiophen-3-yl-3H-imidazo[4,5-b]pyridin-3-yl]benzyl}benzamide] was run?
**A.** 7.30

**Q.** `CS(=O)(=O)c1ccc(-c2cnc3c(c2)nc(-c2cccnc2N)n3-c2ccc(CNC(=O)c3ccccc3)cc2)cc1` [Example 138, N-(4-{2-(2-aminopyridin-3-yl)-6-[4-(methylsulfonyl)phenyl]-3H-imidazo[4,5-b]pyridin-3-yl}benzyl)benzamide] was tested. Which pIC50 did it give?
**A.** 6.92

**Q.** `Nc1ncccc1-c1nc2cc(-c3ccc4cc[nH]c4c3)cnc2n1-c1ccc(CNC(=O)c2ccccc2)cc1` [Example 139, N-{4-[2-(2-aminopyridin-3-yl)-6-(1H-indol-6-yl)-3H-imidazo[4,5-b]pyridin-3-yl]benzyl}benzamide] was tested. Which pIC50 did it give?
**A.** 6.44

**Q.** With `Cc1cccc(-c2cnc3c(c2)nc(-c2cccnc2N)n3-c2ccc(CNC(=O)c3ccccc3)cc2)c1` [Example 140, N-{4-[2-(2-aminopyridin-3-yl)-6-(3-methylphenyl)-3H-imidazo[4,5-b]pyridin-3-yl]benzyl}benzamide] as the compound, how does the pIC50 read?
**A.** 5.96

**Q.** With `Nc1ncccc1-c1nc2cc(-c3cncnc3)cnc2n1-c1ccc(CNC(=O)c2ccccc2)cc1` [Example 142, N-{4-[2-(2-aminopyridin-3-yl)-6-pyrimidin-5-yl-3H-imidazo[4,5-b]pyridin-3-yl]benzyl}benzamide] as the compound, how does the pIC50 read?
**A.** 6.72

**Q.** With `Nc1ncccc1-c1nc2cc(-c3ccc(Br)cc3)cnc2n1-c1ccc(CNC(=O)c2ccccc2)cc1` [Example 143, N-{4-[2-(2-aminopyridin-3-yl)-6-(4-bromophenyl)-3H-imidazo[4,5-b]pyridin-3-yl]benzyl}benzamide] as the compound, how does the pIC50 read?
**A.** 6.77

**Q.** How did the pIC50 turn out when `Nc1ncccc1-c1nc2cc(-c3ccncc3)cnc2n1-c1ccc(CNC(=O)c2ccccc2)cc1` [Example 145, N-{4-[2-(2-aminopyridin-3-yl)-6-pyridin-4-yl-3H-imidazo[4,5-b]pyridin-3-yl]benzyl}benzamide] was run?
**A.** 6.80

**Q.** How did the pIC50 turn out when `Nc1ncccc1-c1nc2cc(Br)cnc2n1-c1ccc(CNS(=O)(=O)c2ccccc2)cc1` [Example 146, N-{4-[2-(2-aminopyridin-3-yl)-6-bromo-3H-imidazo[4,5-b]pyridin-3-yl]benzyl}benzenesulfonamide] was run?
**A.** 6.38

**Q.** How did the pIC50 turn out when `Nc1ncccc1-c1nc2cc(Br)cnc2n1-c1ccc(CNS(=O)(=O)c2ccccc2Cl)cc1` [Example 147, N-{4-[2-(2-aminopyridin-3-yl)-6-bromo-3H-imidazo[4,5-b]pyridin-3-yl]benzyl}-2-chlorobenzenesulfonamide] was run?
**A.** 6.36

**Q.** With `COc1ccc(S(=O)(=O)NCc2ccc(-n3c(-c4cccnc4N)nc4cc(Br)cnc43)cc2)cc1OC` [Example 148, N-{4-[2-(2-aminopyridin-3-yl)-6-bromo-3H-imidazo[4,5-b]pyridin-3-yl]benzyl}-3,4-dimethoxybenzenesulfonamide] as the compound, how does the pIC50 read?
**A.** 6.62
